Data: patent publication US7833795B2, “Assessment of cardiovascular risk using isoprostane biomarkers and COX-2 selective inhibitors” (The Trustees of the University of Pennsylvania, priority 2004, dated 2010)

Assays:
Assay type in all cases: in vivo, rat
Male Fisher 344 rats [1] = test: Plasma lipid hydroperoxides (LPO assay kit) after CCl4; details: for LOOH (by LPO assay kit): plasma
Description: (§1) Animals and treatment protocol: Male Fisher 344 rats (260-280 g) obtained from Charles River Laboratories (Raleigh, N.C.) were used in all experiments. The animals were housed three to a cage. Autoclaved hardwood bedding was used in solid-bottom polycarbonate cages with filter tops. Animal rooms were maintained at 20-25° C. with 35-70% relative humidity with alternating 12-hour light and dark cycles. The rats had free access to deionized, reverse-osmosis-treated water and received autoclaved NIH 31 rodent chow (Zeigler Bros., Gardners, Pa.) ad libitum. For all experiments, rats were fasted overnight and then administered intraperitoneal injections of carbon tetrachloride in canola oil. Control rats received an equal volume of canola oil. Fasting continued throughout the experiment. Rats were anesthetized with Nembutal (0.1 ml/100 g body weight) and 5 ml blood was removed from the dorsal aorta proximal to its bifurcation into the common iliac arteries.
(§2) Carbon tetrachloride (CCL4) treatment: Animals from each of the three dose groups (Control-canola oil, 120 mg/kg CCl4 i.p. and 1200 mg/kg CCl4 i.p.) were investigated at three time points (2, 7, and 16 hours after CCl4 injection). Indomethacin-pretreated rats were also investigated at the same three time points, and the meclofenamic acid-pretreated rats were investigated at one time point (7 hours). Each group consisted of five rats for each analysis, except the meclofenamic acid pretreatment group which consisted of six rats. Animal treatment, sample preparation, assessment of liver histology and serum enzyme activities are described elsewhere (Kadiiska et al., 2000, Free Radic. Biol. Med. 28: 838-845; Jackson, 1989, J. Pharmacol. Exp. Ther. 250: 9-21) and were carried out at NIEHS, Research Triangle Park, N.C.
(§3) Plasma sample preparation: Blood (5 ml) was drawn through single draw Vacutainer® needles (21 Gauge) into open Vacutainer® blood collection tubes containing heparin. The tubes were gently inverted 2-3 times for mixing and immediately placed on ice. Blood was centrifuged (2,000 rpm for 10 minutes at 4° C.) no more than 30 minutes after collection, and the plasma was collected, frozen on dry ice and stored at −70° C.
Two assays were used to measure the effect of CCl4 on lipid hydroperoxides. A lipid hydroperoxide assay kit (Catalog No. 705002) from Cayman Chemical Company (Ann Arbor, Mich.) was used to measure hydroperoxides directly, utilizing the redox reaction with ferrous ion. Hydroperoxides were extracted into chloroform and reacted with ferrous ions to produce ferric ions. The resulting ferric ions were detected using thiocyanate ion as the chromogen. The hydroperoxide concentration was determined based on the absorption at 504 nm using a Beckman DU-7 spectrophotometer at room temperature. The experiments were performed at National Institute of Environmental Health Sciences (NIEHS), Research Triangle Park, N.C.

Male Fisher 344 rats [2] = test: Plasma TBARS after CCl4
Description: as §1, §2, §3
Malondialdehyde (MDA) in plasma was measured using several different assays. In one assay in Experimental Example 1, free MDA and other thiobarbituric acid-reactive substances (TBARS) (MDA-protein adducts) were measured with the thiobarbituric acid (TBA assay) (Draper et al., 1993, Free Radic. Biol. Med. 15: 353-363). One ml of biological sample was combined with 2.0 ml of 1:1 TCA/TBA (30% trichloracetic acid and 0.67% thiobarbituric acid) in the presence of 200 mM butylated hydroxytoluene (BHT) for spectrophotometric readings (Porter et al., 1976, Biochim. Biophys. ACTA 441: 506-512). The incubation mixture was heated for 20 minutes in boiling water. The samples were centrifuged (2,000 rpm for 10 minutes at 4° C.), and the TBARS concentration was determined based on the absorbance at 532 nm measured with a Beckman DU-7 spectrophotometer at room temperature. Measurements were done at NIEHS, Research Triangle Park, N.C. in the case of Experimental Example 1.

Male Fisher 344 rats [3] = test: Plasma protein-bound 3-nitrotyrosine (HPLC-EC)
Description: as §1, §2, §3
Determination of tyrosine products employed a method of sample preparation wherein tyrosine analogs were enzymatically hydrolyzed from protein without the need for sample extraction, concentration or derivatization (Henley et al., 1997, Analytical Biochem. 251: 187-195). High performance liquid chromatography was applied in conjunction with coulometric electrochemical array (HPLC-EC) detection to allow ultrasensitive determination of protein-bound 3-nitrotyrosine and 3,4-dihydroxyphenylalanine (3-hydroxytyrosine) as specific in situ biomarkers of protein exposure to reactive nitrating or oxidizing species (Henley et al., 1997, Analytical Biochem. 251: 187-195). Tyrosine and derivatives were analyzed simultaneously, with practical detection limits for tyrosine, 3-nitrotyrosine, and 3,4-Dopa being 10, 50 and 2 pmol respectively, in as little as 20 μL of sample. The measurements were conducted at the Oklahoma Medical Research Foundation (OMRF), Oklahoma City, Okla.

Male Fisher 344 rats [4] = test: Plasma MDA, Bioxytech LPO-586 colorimetric assay; details: both CCl4 doses
Description: as §1, with “arteries. […]” for “arteries.”
Two colorimetric-based assays, using third derivative spectroscopy, were also used to measure MDA in plasma. […] One molecule of free MDA combines with 2 molecules of the chromogenic agent to produce a stable chromophore with a maximal absorbance at 586 nm. In both assays, the concentration of MDA was determined with 3rd derivative spectroscopy. […]

Male Fisher 344 rats [5] = test: Liver enzyme activities, histopathology and other clinical parameters after CCl4; details: CCl4 120 and 1200 mg/kg; 2, 7, 16 h
Description: as §1, with “Rats were anesthetized with Nembutal (0.1 ml/100 g body weight) and 5 ml blood was removed from the dorsal aorta proximal to its bifurcation into the common iliac arteries.” left out
Serum enzyme activities of lactic acid dehydrogenase (LDH), alanine aminotransferase (ALT), alkaline phosphatase (ALP), aspartate aminotransferase (AST), sorbitol dehydrogenase (SDH), 5′-nucleotidase (5′-NT), serum concentration of total bile acids (TBA), and liver histopathology were performed, as described (Kadiiska et al., 2000, Free Radic. Biol. Med. 28:838-845). In addition, other clinical parameters such as serum albumin, total protein, total iron, total iron binding capacity, nitrite/nitrate, and urinary creatinine were determined, using standard techniques known to those in the art.

## ClC(Cl)(Cl)Cl [CCl4, Carbon tetrachloride]
Male Fisher 344 rats [1]; CCl4 120 mg/kg i.p., 2 h
  LOOH (by LPO assay kit): 0.96 µM
Male Fisher 344 rats [1]; CCl4 120 mg/kg i.p., 7 h
  LOOH (by LPO assay kit): 1.20 µM
Male Fisher 344 rats [1]; CCl4 120 mg/kg i.p., 16 h
  LOOH (by LPO assay kit): 1.60 µM
Male Fisher 344 rats [1]; CCl4 1200 mg/kg i.p., 2 h
  LOOH (by LPO assay kit): 1.42 µM
Male Fisher 344 rats [1]; CCl4 1200 mg/kg i.p., 7 h
  LOOH (by LPO assay kit): 1.35 µM
Male Fisher 344 rats [1]; CCl4 1200 mg/kg i.p., 16 h
  LOOH (by LPO assay kit): 1.64 µM
Male Fisher 344 rats [1]; high dose CCl4, 2 hour
  increase of lipid hydroperoxides compared to controls (kit): 3 fold
Male Fisher 344 rats [2]; CCl4 120 mg/kg i.p., 2 h
  TBARS: 4.1 µM
Male Fisher 344 rats [2]; CCl4 120 mg/kg i.p., 7 h
  TBARS: 10.4 µM
Male Fisher 344 rats [2]; CCl4 120 mg/kg i.p., 16 h
  TBARS: 13.0 µM
Male Fisher 344 rats [2]; CCl4 1200 mg/kg i.p., 2 h
  TBARS: 4.2 µM
Male Fisher 344 rats [2]; CCl4 1200 mg/kg i.p., 7 h
  TBARS: 9.4 µM
Male Fisher 344 rats [2]; CCl4 1200 mg/kg i.p., 16 h
  TBARS: 10.7 µM
Male Fisher 344 rats [3]; CCl4 120 mg/kg i.p., 2 h
  3-Nitrotyrosine, bound: 0.24 µM
Male Fisher 344 rats [3]; CCl4 120 mg/kg i.p., 7 h
  3-Nitrotyrosine, bound: 0.39 µM
Male Fisher 344 rats [3]; CCl4 120 mg/kg i.p., 16 h
  3-Nitrotyrosine, bound: 0.43 µM
Male Fisher 344 rats [3]; CCl4 1200 mg/kg i.p., 2 h
  3-Nitrotyrosine, bound: 0.26 µM
Male Fisher 344 rats [3]; CCl4 1200 mg/kg i.p., 7 h
  3-Nitrotyrosine, bound: 0.42 µM
Male Fisher 344 rats [3]; CCl4 1200 mg/kg i.p., 16 h
  3-Nitrotyrosine, bound: 0.38 µM
Male Fisher 344 rats [4]
  plasma MDA with LPO-586 reagents, 3rd derivative analysis: significant increase was found only for the early time points
Male Fisher 344 rats [5]
  plasma iron concentrations and total iron binding capacity: significantly increased only at the high dose at 16 hours
  plasma nitrite/nitrate levels: significantly increased only at the high dose at all three time points
